In patent publication US11168073B2, “3,3-difluoroallylamines or salts thereof and pharmaceutical compositions comprising the same” (YUHAN CORPORATION, priority 2018, dated 2021):
Structures can show the parent of a compound that is named as a salt. Where two headings read alike, the source gives them in different places.

Columns and labels:
Type in all cases: biochemical
recombinant human VAP-1 = molecular target: T1, recombinant human VAP-1 (Homo sapiens, UniProt Q16853); experiment: Activity evaluation on recombinant human VAP-1 (Amplex Red/HRP-coupled hydrogen peroxide assay, benzylamine substrate); settings: read-out: Inhibitory Activity (IC50, nM) human VAP-1
T1 construct: purchased R&D systems
T1 sequence (Q16853 1-763): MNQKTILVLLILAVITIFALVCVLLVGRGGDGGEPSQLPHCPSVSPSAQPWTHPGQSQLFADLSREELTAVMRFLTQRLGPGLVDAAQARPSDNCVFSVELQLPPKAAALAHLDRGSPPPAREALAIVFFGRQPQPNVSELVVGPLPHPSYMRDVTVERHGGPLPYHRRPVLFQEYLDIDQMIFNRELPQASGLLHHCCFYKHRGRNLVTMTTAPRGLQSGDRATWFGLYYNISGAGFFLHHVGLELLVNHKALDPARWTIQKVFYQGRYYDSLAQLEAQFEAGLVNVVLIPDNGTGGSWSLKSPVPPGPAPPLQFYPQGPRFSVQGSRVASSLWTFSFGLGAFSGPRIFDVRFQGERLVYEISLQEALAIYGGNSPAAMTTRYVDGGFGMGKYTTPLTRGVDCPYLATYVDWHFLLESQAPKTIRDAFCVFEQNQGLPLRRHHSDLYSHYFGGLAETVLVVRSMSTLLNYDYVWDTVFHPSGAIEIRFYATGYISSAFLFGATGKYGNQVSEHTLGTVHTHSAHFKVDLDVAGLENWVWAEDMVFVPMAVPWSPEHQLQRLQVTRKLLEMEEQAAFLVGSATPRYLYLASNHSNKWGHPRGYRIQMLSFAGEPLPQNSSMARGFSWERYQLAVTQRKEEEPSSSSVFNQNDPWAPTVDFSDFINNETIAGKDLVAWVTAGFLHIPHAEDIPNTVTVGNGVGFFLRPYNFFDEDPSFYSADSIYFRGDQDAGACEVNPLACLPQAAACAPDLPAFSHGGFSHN
Description: (§1) The compounds according to the present technology were evaluated in terms of activity on recombinant human VAP-1 (R&D systems) by measuring the level of hydrogen peroxide in horseradish peroxidase (HRP)-coupled reaction using Amplex Red Hydrogen Peroxide Assay Kit (Molecular Probes, Invitrogen, USA). The experiment was carried out at room temperature using benzylamine as a substrate. In the HRP-coupled reaction, hydrogen peroxide oxidation of 10-acetyl-3,7-dihydroxyphenoxazine (Amplex Red reagent) produces resorufin, which is a highly fluorescent compound. Briefly, the test compound was dissolved in dimethyl sulfoxide (DMSO) at a concentration of 20 mM. The dose-response assessment was made by 1:3 serial dilution in DMSO, thereby creating a 8 point curve. The concentration of the upper part was controlled according to the efficacy of the compounds, followed by the dilution with a reaction buffer solution to obtain a final DMSO concentration of less than 1%. To each well of a 96 black well plate, human VAP-1 purified in 50 mM sodium phosphate buffer solution (pH7.4) was added. The test compounds dissolved in DMSO were incubated with the human VAP-1 enzymes at 37° C. for 30 minutes. After 30-minute incubation, each well was added with a reaction mixture containing 200 uM Amplex Red reagent prepared from 50 mM sodium phosphate buffer solution (pH 7.4), 1 mM benzylamine, and 1 U/mL HRP. Fluorescence intensity was measured at several time points during 1-2 hours using a microplate reader (Flexstation3, Molecular Devices) under the wavelength condition exciting at 544 nm and reading the emission at 590 nm. The inhibitory effect of the compounds was measured as a decrease (%) in the signal rate as compared to the control group without any inhibitor (only diluted DMSO). Data was fixed to a logistic model with four variables and IC50 value was calculated using GraphPad Prism program.

[1] = molecular target: T2, recombinant human MAO-A (monoamine oxidase-A) (Homo sapiens, UniProt P21397); experiment: Activity evaluation on recombinant human MAO-A (Amplex Red/HRP-coupled assay, 0.5 mM tyramine substrate); settings: read-out: Inhibitory Activity (IC50, nM) MAO-A
T2 construct: purchased Sigma-Aldrich
T2 sequence (P21397 1-527): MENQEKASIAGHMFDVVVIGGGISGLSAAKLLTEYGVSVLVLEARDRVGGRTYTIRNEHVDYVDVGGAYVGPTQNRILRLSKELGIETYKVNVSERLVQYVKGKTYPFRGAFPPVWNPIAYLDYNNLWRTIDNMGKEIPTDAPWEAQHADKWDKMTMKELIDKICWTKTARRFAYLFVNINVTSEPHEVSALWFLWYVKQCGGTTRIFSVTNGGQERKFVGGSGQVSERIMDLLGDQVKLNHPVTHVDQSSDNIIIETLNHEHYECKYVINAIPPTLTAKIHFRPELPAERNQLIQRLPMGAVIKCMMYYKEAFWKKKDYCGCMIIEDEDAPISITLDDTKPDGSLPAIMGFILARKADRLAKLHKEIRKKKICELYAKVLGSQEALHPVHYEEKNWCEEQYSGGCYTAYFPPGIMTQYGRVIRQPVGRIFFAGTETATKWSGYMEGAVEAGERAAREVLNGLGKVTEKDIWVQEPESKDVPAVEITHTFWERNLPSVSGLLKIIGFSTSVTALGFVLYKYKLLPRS
Description: as §1
(§2) In addition, the compounds according to the present technology were evaluated in terms of activity on a recombinant human MAO-A (monoamine oxidase-A, Sigma-Aldrich) and a recombinant human MAO-B (monoamine oxidase-B, Sigma-Aldrich) by using as substrates, 0.5 mM tyramine and 1 mM benzylamine, respectively, with a method similar to the activity evaluation method for recombinant human VAP-1. The compounds according to the present technology were also evaluated in terms of activity on a recombinant human DAO (diamine oxidase, R&D systems) by using as a substrate 1 mM putrescine with a method similar to the activity evaluation method for recombinant human VAP-1.

[2] = molecular target: T3, recombinant human MAO-B (monoamine oxidase-B) (Homo sapiens, UniProt P27338); experiment: Activity evaluation on recombinant human MAO-B (Amplex Red/HRP-coupled assay, 1 mM benzylamine substrate); settings: read-out: Inhibitory Activity (IC50, nM) MAO-B
T3 construct: purchased Sigma-Aldrich
T3 sequence (P27338 1-520): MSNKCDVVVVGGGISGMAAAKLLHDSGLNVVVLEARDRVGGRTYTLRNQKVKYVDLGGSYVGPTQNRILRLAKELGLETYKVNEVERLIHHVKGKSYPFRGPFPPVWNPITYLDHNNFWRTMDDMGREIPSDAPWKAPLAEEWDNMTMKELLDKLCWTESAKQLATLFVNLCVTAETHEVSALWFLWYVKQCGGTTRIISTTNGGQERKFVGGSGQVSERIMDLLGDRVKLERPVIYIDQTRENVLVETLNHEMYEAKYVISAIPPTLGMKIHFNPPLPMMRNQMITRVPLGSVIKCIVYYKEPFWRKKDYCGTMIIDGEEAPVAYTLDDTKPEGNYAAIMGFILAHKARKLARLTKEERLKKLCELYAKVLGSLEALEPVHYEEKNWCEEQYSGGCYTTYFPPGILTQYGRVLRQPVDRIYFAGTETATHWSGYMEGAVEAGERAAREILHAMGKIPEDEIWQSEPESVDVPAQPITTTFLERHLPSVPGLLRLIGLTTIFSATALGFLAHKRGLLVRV
Description: as §1, §2

[3] = molecular target: T4, recombinant human DAO (diamine oxidase) (Homo sapiens, UniProt P19801); experiment: Activity evaluation on recombinant human DAO (Amplex Red/HRP-coupled assay, 1 mM putrescine substrate); settings: read-out: Inhibitory Activity (IC50, nM) DAO
T4 construct: purchased R&D systems
T4 sequence (P19801 20-751): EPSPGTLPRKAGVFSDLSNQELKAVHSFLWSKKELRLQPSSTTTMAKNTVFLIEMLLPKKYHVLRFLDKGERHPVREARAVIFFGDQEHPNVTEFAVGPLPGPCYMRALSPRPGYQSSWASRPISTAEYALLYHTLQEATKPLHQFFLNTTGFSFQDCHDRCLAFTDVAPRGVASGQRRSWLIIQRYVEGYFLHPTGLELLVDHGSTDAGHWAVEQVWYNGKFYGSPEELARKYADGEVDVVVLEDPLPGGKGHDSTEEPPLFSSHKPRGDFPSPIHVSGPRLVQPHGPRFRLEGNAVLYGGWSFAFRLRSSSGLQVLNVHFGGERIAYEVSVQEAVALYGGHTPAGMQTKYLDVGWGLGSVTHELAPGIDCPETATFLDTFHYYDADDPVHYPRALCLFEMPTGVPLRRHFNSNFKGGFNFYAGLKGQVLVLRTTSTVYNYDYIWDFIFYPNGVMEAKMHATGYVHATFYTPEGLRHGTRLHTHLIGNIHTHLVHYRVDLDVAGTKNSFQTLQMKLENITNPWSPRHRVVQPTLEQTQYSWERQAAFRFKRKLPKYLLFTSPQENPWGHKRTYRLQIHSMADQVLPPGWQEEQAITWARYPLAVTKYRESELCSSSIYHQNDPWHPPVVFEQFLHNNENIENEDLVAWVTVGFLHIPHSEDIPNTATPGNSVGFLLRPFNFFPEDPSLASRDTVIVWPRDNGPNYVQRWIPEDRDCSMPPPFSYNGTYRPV
Description: as §1, §2

[4] = recombinant human VAP-1, 30 min preincubation at 37° C., 1 mM benzylamine
[5] = recombinant human VAP-1, benzylamine substrate

| SMILES | IC50 (recombinant human VAP-1; [4]) | IC50 ([1]; 0.5 mM tyramine) | IC50 ([2]; 1 mM benzylamine) | IC50 ([3]; 1 mM putrescine) | IC50 (recombinant human VAP-1; [5]) | IC50 ([1]; 0.5 mM tyramine substrate) | IC50 ([2]; 1 mM benzylamine substrate) | IC50 ([3]; 1 mM putrescine substrate) |
| --- | --- | --- | --- | --- | --- | --- | --- | --- |
| NCC(Cn1ncn(Cc2cc(-c3ccc(N4CCNCC4)cc3)cs2)c1=O)=C(F)F [Example 147, 2-[2-(aminomethyl)-3,3-difluoro-allyl]-4-[[4-(4-piperazin-1-ylphenyl)-2-thienyl]methyl]-1,2,4-triazol-3-one Ditrifluoroacetate] | 11 nM | > 100000 nM | > 100000 nM | 2600 nM |  |  |  |  |
| CC(C)n1cc(-c2csc(Cn3cnn(CC(CN)=C(F)F)c3=O)c2)ccc1=O [Example 187, 5-[5-[[1-[2-(aminomethyl)-3,3-difluoro-allyl]-5-oxo-1,2,4-triazol-4-yl]methyl]-3-thienyl]-1-isopropyl-pyridin-2-one Trifluoroacetate] |  |  |  |  | 1.1 nM | > 100000 nM | > 100000 nM | 8900 nM |
| CN1C(=O)CCc2cc(-c3cnc(-n4cnn(CC(CN)=C(F)F)c4=O)c(F)c3)ccc21 [Example 87, 6-[6-[1-[2-(aminomethyl)-3,3-difluoro-allyl]-5-oxo-1,2,4-triazol-4-yl]-5-fluoro-3-pyridyl]-1-methyl-3,4-dihydroquinolin-2-one Trifluoroacetate] | 0.1 nM | > 100000 nM | 1100 nM | 22 nM |  |  |  |  |
| CCn1cc(-c2cccc(-c3cnc(-n4cnn(CC(CN)=C(F)F)c4=O)c(C)c3)c2)cn1 [Example 291, 2-[2-(aminomethyl)-3,3-difluoro-allyl]-4-[5-[3-(1-ethylpyrazol-4-yl)phenyl]-3-methyl-2-pyridyl]-1,2,4-triazol-3-one Trifluoroacetate] |  |  |  |  | 0.6 nM | > 100000 nM | 3450 nM | 6160 nM |
| COc1cc(-c2cnc(-n3cnn(CC(CN)=C(F)F)c3=O)c(C)c2)cc(OC)c1OC [Example 224, 2-[2-(aminomethyl)-3,3-difluoro-allyl]-4-[3-methyl-5-(3,4,5-trimethoxyphenyl)-2-pyridyl]-1,2,4-triazol-3-one Trifluoroacetate] |  |  |  |  | 0.8 nM | > 100000 nM | 1900 nM | 5500 nM |
| Cc1cc(-c2ccc3c(c2)NC(=O)CO3)cnc1-n1cnn(CC(CN)=C(F)F)c1=O [Example 221, 6-[6-[1-[2-(aminomethyl)-3,3-difluoro-allyl]-5-oxo-1,2,4-triazol-4-yl]-5-methyl-3-pyridyl]-4H-1,4-benzoxazin-3-one Trifluoroacetate] |  |  |  |  | 0.3 nM | 20000 nM | 9000 nM | 2700 nM |
| Cc1cc(-c2cccc(-n3cnn(CC(CN)=C(F)F)c3=O)n2)cc2c1NC(=O)CC2 [Example 51, 6-[6-[1-[2-(aminomethyl)-3,3-difluoro-allyl]-5-oxo-1,2,4-triazol-4-yl]-2-pyridyl]-8-methyl-3,4-dihydro-1H-quinolin-2-one Trifluoroacetate] | 0.6 nM | > 100000 nM | 28000 nM | 520 nM |  |  |  |  |
| CN(C)c1ccc(C#Cc2ccc(Cn3cnn(CC(CN)=C(F)F)c3=O)s2)cn1 [Example 162, 2-[2-(aminomethyl)-3,3-difluoro-allyl]-4-[[5-[2-[6-(dimethylamino)-3-pyridyl]ethynyl]-2-thienyl]methyl]-1,2,4-triazol-3-one Trifluoroacetate] | 0.7 nM | > 10000 nM |  | > 10000 nM |  |  |  |  |
| CN(C)c1ncc(-c2ccc(Cn3cnn(CC(CN)=C(F)F)c3=O)s2)cc1F [Example 115, 2-[2-(aminomethyl)-3,3-difluoro-allyl]-4-[[5-[6-(dimethylamino)-5-fluoro-3-pyridyl]-2-thienyl]methyl]-1,2,4-triazol-3-one Trifluoroacetate] | 0.8 nM | > 100000 nM |  | 11000 nM |  |  |  |  |
| NCC(Cn1ncn(-c2ccc(Br)nc2)c1=O)=C(F)F [Example 7, 2-[2-(aminomethyl)-3,3-difluoro-allyl]-4-(6-bromo-3-pyridyl)-1,2,4-triazol-3-one Trifluoroacetate] | 9.4 nM | > 100000 nM | 6100 nM |  |  |  |  |  |
